This is an account of results in ChEMBL document CHEMBL1151128, “Halleridone, a cytotoxic constituent from Cornus controversa” (J Nat Prod, 1988).

In brackets after ≈: the same amount, converted by molar mass.

The test system of experiment [1] is P388. Put plainly: Cytotoxicity against mouse P388 cells. It is filed as functional, cell-based.
The nature of experiment [2]: Cytotoxicity against human HeLaS3 cells. Type of experiment: functional, cell-based. The note with it: HeLa S3.

Take `O=C1C=C[C@]2(OC(=O)c3ccccc3)CCO[C@@H]2C1`: the IC50 in experiment [1] was 0.5 mg/L (≈ 1.94 µM); in experiment [2], 1.6 mg/L (≈ 6.19 µM).
Taken in the same sequence, the figures for `CCCCCC(=O)O[C@]12C=CC(O)C[C@H]1OCC2` (stereo not given in full) were 38.5 mg/L (≈ 151 µM) and 5.3 mg/L (≈ 20.8 µM).
For `CCCCCC(=O)O[C@]12C=CC(=O)C[C@H]1OCC2`, in that order: 0.3 mg/L (≈ 1.19 µM) and 1.8 mg/L (≈ 7.13 µM).
Regarding `O=C1C=C[C@]2(OC(=O)c3ccc(Cl)cc3)CCO[C@@H]2C1`, the IC50 in experiment [1] came to 0.7 mg/L (≈ 2.39 µM); in experiment [2] it was 0.9 mg/L (≈ 3.07 µM).
For `CC(=O)O[C@]12C=CC(=O)C[C@H]1OCC2`, in that order: 0.5 mg/L (≈ 2.55 µM) and 4.1 mg/L (≈ 20.9 µM).
For `O=C1C=C[C@]2(OC(=O)c3ccccc3Cl)CCO[C@@H]2C1`, in that order: 0.4 mg/L (≈ 1.37 µM) and 1 mg/L (≈ 3.42 µM).
For `O=C1CC[C@]2(O)CCO[C@@H]2C1`, in that order: 43 mg/L (≈ 275 µM) and > 100 mg/L.
As to `OC1C=C[C@]2(O)CCO[C@@H]2C1` (stereo not given in full), the IC50 in experiment [1] was 40.8 mg/L (≈ 261 µM); in experiment [2], > 100 mg/L.
For `O=C1C=C[C@]2(O)CCO[C@@H]2C1` [HALLERIDONE], in that order: 2.1 mg/L (≈ 13.6 µM) and 2.8 mg/L (≈ 18.2 µM).
Taken in the same sequence, the figures for `CCCC(=O)O[C@]12C=CC(=O)C[C@H]1OCC2` were 0.6 mg/L (≈ 2.68 µM) and 2.7 mg/L (≈ 12 µM).
For `CCCCCCCC(=O)O[C@]12C=CC(O)C[C@H]1OCC2` (stereo not given in full), in that order: 8.4 mg/L (≈ 29.7 µM) and 3.5 mg/L (≈ 12.4 µM).
`CCCCCCCC(=O)O[C@]12C=CC(=O)C[C@H]1OCC2`: the IC50 in experiment [1] was found to be 0.3 mg/L (≈ 1.07 µM); in experiment [2] it was 0.8 mg/L (≈ 2.85 µM).
Taken in the same sequence, the figures for `CC(=O)O[C@]12C=CC(O)C[C@H]1OCC2` (stereo not given in full) were > 100 mg/L and > 100 mg/L.
For `CCCC(=O)O[C@]12C=CC(O)C[C@H]1OCC2` (stereo not given in full), in that order: > 100 mg/L and 8.8 mg/L (≈ 38.9 µM).
Taken in the same sequence, the figures for `O=C1C=C[C@]2(OC(=O)c3cccc(Cl)c3)CCO[C@@H]2C1` were < 0.1 mg/L and 1.2 mg/L (≈ 4.1 µM).
